Laboratory results published in US12012385B1, “4,5-bis(4-methoxyphenyl)-1-hexyl-2-phenyl-1H-imidazole as an antimicrobial compound” (KING FAISAL UNIVERSITY, priority 2023, dated 2024).

Tests used:
E. Coli = assay: Antimicrobial testing, agar dilution method; assay type: cell-based, Escherichia coli; conditions: after 10, 20, 40 and 60 min at all dilutions 1:100, 1:200, 1:400, 1:800
Procedure: (§1) The antimicrobial properties of the, 5-bis(4-methoxyphenyl)-1-hexyl-2-phenyl-1H-imidazole was studied by the method of agar dilution. Test solutions of each compound was prepared in concentration of 1% using dimethylformamide as a solvent then they are diluted in physiological solution to obtain the final experimental dilutions 1:100, 1:200, 1:400, 1:800. The effect of these substances are compared with furacillin in a controllable study. The testing microbes used were gram positive bacteria St. aureus, gram negative bacteria E. Coli, Ps. aeruginosa and Candida albicans fungi were taken. The experiments used for this survey were meat-pentonlu agar (EPA) for cultivation of bacteria and Saburo environment for fungi. Each experiment used 1 ml of test solution on each plate 500 min. Add 2 drops of emulsified with microbes feel. All experimental samples were taken from the agar after 10, 20, 40, 60 minutes in the environment on the basis of Patrk planted. Bacteria were cultivated at a temperature of 37° C. for 1 day and the mushroom was kept in a thermostat for […] at a temperature of 28° C. Then the results were checked.

St. aureus = assay: Antimicrobial testing, agar dilution method; assay type: cell-based, Staphylococcus aureus; conditions: after 10, 20, 40 and 60 min at all dilutions 1:100, 1:200, 1:400, 1:800
Procedure: as §1

Candida albicans = assay: Antimicrobial testing, agar dilution method; assay type: cell-based; conditions: after 10, 20, 40 and 60 min at all dilutions 1:100, 1:200, 1:400, 1:800
Procedure: as §1

Ps. aeruginosa = assay: Antimicrobial testing, agar dilution method; assay type: cell-based, Pseudomonas aeruginosa; conditions: after 10, 20, 40 and 60 min at all dilutions 1:100, 1:200, 1:400, 1:800
Procedure: as §1

In the case of `CCCCCCn1c(-c2ccccc2)nc(-c2ccc(OC)cc2)c1-c1ccc(OC)cc1` [4,5-bis(4-methoxyphenyl)-1-hexyl-2-phenyl-1H-imidazole], the “inhibition activity (in words)” value (E. Coli) is reported as “higher inhibition activity”, the “inhibition activity (in words)” value (St. aureus) is reported as “higher inhibition activity” and the “inhibition activity (in words)” value (Candida albicans) is reported as “higher inhibition activity”. For the same compound, the melting point was 177 to 179 °C and the “inhibition activity (in words)” value (Ps. aeruginosa) was “higher inhibition activity”.
